System: testosterone-enhanced ventral prostate and seminal vesicle weights in castrated male Sprague Dawley rats
Experiment: Ventral Prostate and Seminal Vesicle Weight In Vivo Assay
Design: species or system rat
Conditions: immature castrated rats; once daily for five days, usually orally at 40 mg/kg, with testosterone propionate 2 mg/kg s.c.
Method: Immature (approximately 50 g) castrated male Sprague Dawley rats (Charles River) were treated once daily for five days with test compound (usually given orally at 40 mg/kg in a volume of 0.3 mL, in 30% cyclodextrin or 0.5% methylcellulose vehicle) and with testosterone propionate (given subcutaneously by injection at the nape of the neck at 2 mg/kg, in a volume of 0.1 mL in sesame oil). On the sixth day, the rats were euthanized by asphyxiation in carbon dioxide. Ventral prostates and seminal vesicles were removed and their wet weights determined.
A test compound was said to be “active” if the non weight adjusted prostate weight was ≦40 mg or the % Inhibition prostate weight, body weight adjusted was ≧40% @2 mg/day dosage.

Row | SMILES | active / inactive (inhibition of testosterone-enhanced prostate weight)
1 | CCSCC(C)(O)c1cc2cc(C#N)c(C)c(I)c2[nH]1 (racemic) [compound 415] | inactive
2 | C=Cc1c(C(C)(C)O)[nH]c2cc(C(F)(F)F)c([N+](=O)[O-])cc12 [compound 281] | inactive
3 | CC(C)(O)c1cc2cc([N+](=O)[O-])c(C(F)(F)F)cc2n1S(C)(=O)=O [compound 273] | inactive
4 | CCS(=O)(=O)CC(C)(O)c1cc2cc(C#N)c(C(F)(F)F)cc2[nH]1 (single isomer, unassigned) [compound 397] | inactive
5 | CCS(=O)(=O)CC(C)(O)c1cc2cc(C#N)c(C(F)(F)F)cc2[nH]1 (racemic) [compound 407] | inactive
6 | CCSCC(O)c1[nH]c2cc(C(F)(F)F)c(C#N)cc2c1I (racemic) [compound 411] | inactive
7 | CCSCC(C)(O)c1cc2cc([N+](=O)[O-])c(C(F)(F)F)cc2[nH]1 (racemic) [compound 153] | inactive
8 | CCSCC(C)(OC)c1cc2cc([N+](=O)[O-])c(C(F)(F)F)cc2[nH]1 (stereo not drawn) [compound 167] | active
9 | CSCC(O)c1cc2cc(C#N)c(C(F)(F)F)cc2[nH]1 (racemic) [compound 408] | inactive
10 | CC(O)(COc1ccc(C#N)c(C(F)(F)F)c1)c1cc2cc(C#N)c(C(F)(F)F)cc2[nH]1 (stereo not drawn) [Compound #429, 2-[2-(4-Cyano-3-trifluoromethyl-phenoxy)-1-hydroxy-1-methyl-ethyl]-6-trifluoromethyl-1H-indole-5-carbonitrile] | inactive
11 | CCSCC(C)(CO)c1cc2cc([N+](=O)[O-])c(C(F)(F)F)cc2[nH]1 (stereo not drawn) [compound 11] | inactive
12 | CC(O)(c1[nH]c2cc(C(F)(F)F)c(C#N)cc2c1I)C(F)(F)F (racemic) [compound 330] | active
13 | CCSCC(O)(CSCC)c1cc2cc([N+](=O)[O-])c(C(F)(F)F)cc2[nH]1 [compound 13] | inactive
14 | CC(C)(O)c1[nH]c2cc(C(F)(F)F)c(Cl)cc2c1Cl [compound 282] | inactive
15 | CC(C)(O)c1cc2cc(Cl)c(C(F)(F)F)cc2n1S(C)(=O)=O [compound 284] | active
16 | CCSCC(C)(O)c1cc2cc(C)c(C(F)(F)F)cc2[nH]1 (racemic) [compound 414] | inactive
17 | CC(C)(O)c1[nH]c2cc(C(F)(F)F)c(C#N)cc2c1Br [compound 288] | active
18 | CC[S+]([O-])CC(C)(O)c1[nH]c2cc(C(F)(F)F)c(C#N)cc2c1C (mixture of isomers) [compound 319] | active

Row | SMILES | active / inactive (inhibition of testosterone-enhanced prostate weight)
19 | CCSCC(C)(O)c1c(C)c2cc(C#N)c(C(F)(F)F)cc2n1C (single isomer, unassigned) [compound 318] | inactive
20 | CCS(=O)(=O)CC(C)(O)c1cc2cc([N+](=O)[O-])c(C(F)(F)F)cc2[nH]1 (stereo not drawn) [compound 175] | active
21 | CC(C)(O[Si](C)(C)C)c1cc2cc(Cl)c(C(F)(F)F)cc2n1S(C)(=O)=O [compound 270] | inactive
22 | CCSCC(C)(O)c1cc2cc(C#N)c(Cl)cc2[nH]1 (racemic) [compound 224] | active
23 | CCc1c(C(C)(O)CS(=O)(=O)CC)[nH]c2cc(C(F)(F)F)c(C#N)cc12 (single isomer, unassigned) [compound 354] | active
24 | CCSCC(C)(O)c1cc2cc([N+](=O)[O-])c(C(F)(F)F)cc2o1 (racemic) [compound 9] | inactive
25 | CC(C)(O)c1[nH]c2cc(C(F)(F)F)c(C#N)cc2c1C#N [compound 295] | inactive
26 | CCS(=O)(=O)CC(C)(O)c1cc2cc([N+](=O)[O-])c(C(F)(F)F)cc2n1C (single isomer, unassigned) [compound 250] | active
27 | CC(C)(O)c1[nH]c2cc(C(F)(F)F)c([N+](=O)[O-])cc2c1C#N [compound 291] | active
28 | CC(O)(c1cc2cc(C#N)c(C(F)(F)F)cc2n1CC#N)C(F)(F)F (racemic) [compound 331] | active
29 | CC(O)(c1cc2cc(C#N)c(C(F)(F)F)cc2[nH]1)C(F)(F)F (stereo not drawn) [Compound #329, 2-(2,2,2-Trifluoro-1-hydroxy-1-methyl-ethyl)-6-trifluoromethyl-1H-indole-5-carbonitrile] | active
30 | CC(O)(C[S+]([O-])CC(F)(F)F)c1cc2cc([N+](=O)[O-])c(C(F)(F)F)cc2[nH]1 (mixture of isomers) [compound 205] | active
31 | COCn1c(C(C)(O)C(F)(F)F)cc2cc(C#N)c(C(F)(F)F)cc21 (racemic) [compound 332] | active
32 | CCSCC(C)(O)c1[nH]c2cc(C(F)(F)F)c(C#N)cc2c1CC (racemic) [compound 344] | active
33 | N#Cc1cc2cc(C(O)(C(F)(F)F)C(F)(F)F)[nH]c2cc1C(F)(F)F [compound 357] | active
34 | N#Cc1cc2cc(C3(O)CCSC3)[nH]c2cc1C(F)(F)F (stereo not drawn) [Compound #15] | inactive
35 | CCSCC(O)c1cc2cc(C#N)c(C(F)(F)F)cc2[nH]1 (racemic) [compound 410] | inactive
36 | CC(C)(O)c1[nH]c2cc(C(F)(F)F)c([N+](=O)[O-])cc2c1I [compound 276] | active

— patent US8394971B2, “Indole derivatives as selective androgen receptor modulators (SARMS)” (Janssen Pharmaceutica N.V., priority 2004, dated 2013)
